Tests used:
B. subtilis 168 [1] = test: fitness (endpoint OD595 vs no drug) (fraction); higher = more growth
Procedure, shortened: (§1)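 Growth medium was TSB, LB Lennox or CY, and plates were kept at 37 °C. Inoculation was at OD595 0.01 in 384-well plates, at 30 µl per well or 55 µl for S. pneumoniae. OD595 was monitored every 30 min for 14 h and background-subtracted using the first reading. Fitness is the optical density on entering stationary phase divided by the robust mean of no-drug controls, with values capped at 1.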

S. aureus DSM 20231 [2] = test: as above
Procedure, shortened: as §1

S. aureus Newman [3] = test: as above
Procedure, shortened: as §1

S. pneumoniae D39V [4] = test: as above
Procedure, shortened: as §1

B. subtilis 168 [5] = test: Bliss interaction score (quartile over a dose matrix) (fitness difference); higher = more antagonism (negative = synergy)
Procedure, shortened: (§2)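 The Bliss score is observed minus expected fitness, where expected fitness is the product of the single-drug fitness values inferred from the combination data. Fitness is the OD595 at the onset of stationary phase over the plate's robust no-drug mean, capped at 1. Scores are summarised by quartiles over technical, biological and donor/recipient replicates.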

S. aureus DSM 20231 [6] = test: as above
Procedure, shortened: as §2

S. aureus Newman [7] = test: as above
Procedure, shortened: as §2

S. pneumoniae D39V [8] = test: as above
Procedure, shortened: as §2
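Wherever Bliss interaction score (quartile over a dose matrix) is given: first quartile when negative (synergy) and third quartile when positive (antagonism).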
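Wherever fitness (endpoint OD595 vs no drug) is given: OD595 on entry to stationary phase over no-drug wells; at most 1.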

COc1c(N2C[C@@H]3CCCN[C@@H]3C2)c(F)cc2c(=O)c(C(=O)O)cn(C3CC3)c12 [Moxifloxacin] + COc1ccc(C[C@H](N)C(=O)N[C@H]2[C@@H](O)[C@H](n3cnc4c(N(C)C)ncnc43)O[C@@H]2CO)cc1 [Puromycin]
fitness
Details | partner 0.39 µg/mL | partner 0.78 µg/mL | partner 1 µg/mL | partner 1.56 µg/mL | partner 2 µg/mL | partner 4 µg/mL
B. subtilis 168 [1], first compound 0.0312 µg/mL | 0.0423 | 0.0567 | – | 0.053 | – | –
B. subtilis 168 [1], first compound 0.0625 µg/mL | 0.0666 | 0.0602 | – | 0.0585 | – | –
B. subtilis 168 [1], first compound 0.125 µg/mL | 0.0451 | 0.045 | – | 0.0653 | – | –
B. subtilis 168 [1], first compound 2 µg/mL | 0.0227 | 0.028 | – | 0.0306 | – | –
B. subtilis 168 [1], first compound 4 µg/mL | 0.021 | 0.0248 | – | 0.0303 | – | –
B. subtilis 168 [1], first compound 8 µg/mL | 0.009 | 0.0168 | – | 0.0189 | – | –
S. aureus DSM 20231 [2], first compound 0.0075 µg/mL | 0.885 | 0.928 | – | 0.861 | – | –
S. aureus DSM 20231 [2], first compound 0.015 µg/mL | 0.789 | 0.846 | – | 0.802 | – | –
S. aureus DSM 20231 [2], first compound 0.03 µg/mL | 0.681 | 0.695 | – | 0.668 | – | –
S. aureus Newman [3], first compound 0.0075 µg/mL | 0.797 | 0.757 | – | 0.817 | – | –
S. aureus Newman [3], first compound 0.015 µg/mL | 0.673 | 0.657 | – | 0.658 | – | –
S. aureus Newman [3], first compound 0.03 µg/mL | 0.119 | 0.161 | – | 0.282 | – | –
S. pneumoniae D39V [4], first compound 0.005 µg/mL | – | – | ≥ 1 | – | ≥ 1 | 0.885
S. pneumoniae D39V [4], first compound 0.01 µg/mL | – | – | ≥ 1 | – | 0.982 | 0.88
S. pneumoniae D39V [4], first compound 0.02 µg/mL | – | – | 1 | – | 0.985 | 0.88

one replicate
Details | fitness
S. aureus DSM 20231 [2], first compound 0.0075 µg/mL, partner 3.12 µg/mL | 0.779
S. aureus DSM 20231 [2], first compound 0.0075 µg/mL, partner 6.24 µg/mL | 0.642
S. aureus DSM 20231 [2], first compound 0.015 µg/mL, partner 3.12 µg/mL | 0.787
S. aureus DSM 20231 [2], first compound 0.015 µg/mL, partner 6.24 µg/mL | 0.509
S. aureus DSM 20231 [2], first compound 0.03 µg/mL, partner 3.12 µg/mL | 0.754
S. aureus DSM 20231 [2], first compound 0.03 µg/mL, partner 6.24 µg/mL | 0.547
S. aureus DSM 20231 [2], first compound 0.06 µg/mL, partner 0.39 µg/mL | 0.676
S. aureus DSM 20231 [2], first compound 0.06 µg/mL, partner 0.78 µg/mL | 0.7
S. aureus DSM 20231 [2], first compound 0.06 µg/mL, partner 1.56 µg/mL | 0.687
S. aureus DSM 20231 [2], first compound 0.12 µg/mL, partner 0.39 µg/mL | 0.48
S. aureus DSM 20231 [2], first compound 0.12 µg/mL, partner 0.78 µg/mL | 0.482
S. aureus DSM 20231 [2], first compound 0.12 µg/mL, partner 1.56 µg/mL | 0.558
S. pneumoniae D39V [4], first compound 0.0037 µg/mL, partner 1 µg/mL | 0.502
S. pneumoniae D39V [4], first compound 0.0037 µg/mL, partner 2 µg/mL | 0.431
S. pneumoniae D39V [4], first compound 0.0037 µg/mL, partner 4 µg/mL | 0.342
S. pneumoniae D39V [4], first compound 0.0075 µg/mL, partner 1 µg/mL | 0.846
S. pneumoniae D39V [4], first compound 0.0075 µg/mL, partner 2 µg/mL | 0.82
S. pneumoniae D39V [4], first compound 0.0075 µg/mL, partner 4 µg/mL | 0.77
S. pneumoniae D39V [4], first compound 0.015 µg/mL, partner 1 µg/mL | 0.935
S. pneumoniae D39V [4], first compound 0.015 µg/mL, partner 2 µg/mL | 0.798
S. pneumoniae D39V [4], first compound 0.015 µg/mL, partner 4 µg/mL | 0.763

Details | Bliss interaction score
B. subtilis 168 [5] | -0.0157
S. aureus DSM 20231 [6] | -0.0292
S. aureus Newman [7] | 0.0443
S. pneumoniae D39V [8] | 0.101

COc1c(N2C[C@@H]3CCCN[C@@H]3C2)c(F)cc2c(=O)c(C(=O)O)cn(C3CC3)c12 [Moxifloxacin] + C[n+]1ccc(-c2cc[n+](C)cc2)cc1 [Paraquat]
fitness
Details | partner 1.25 µg/mL | partner 1.5 µg/mL | partner 2.5 µg/mL | partner 3 µg/mL | partner 5 µg/mL | partner 6 µg/mL
B. subtilis 168 [1], first compound 0.0312 µg/mL | 0.0599 | – | 0.0539 | – | 0.0449 | –
B. subtilis 168 [1], first compound 0.0625 µg/mL | 0.044 | – | 0.0467 | – | 0.0504 | –
B. subtilis 168 [1], first compound 0.125 µg/mL | 0.0395 | – | 0.0537 | – | 0.0512 | –
B. subtilis 168 [1], first compound 2 µg/mL | 0.0316 | – | 0.0333 | – | 0.0436 | –
B. subtilis 168 [1], first compound 4 µg/mL | 0.0442 | – | 0.039 | – | 0.0413 | –
B. subtilis 168 [1], first compound 8 µg/mL | 0.0139 | – | 0.0174 | – | 0.0265 | –
S. aureus DSM 20231 [2], first compound 0.0075 µg/mL | 0.818 | – | 0.831 | – | 0.824 | –
S. aureus DSM 20231 [2], first compound 0.015 µg/mL | 0.748 | – | 0.712 | – | 0.774 | –
S. aureus DSM 20231 [2], first compound 0.03 µg/mL | 0.647 | – | 0.632 | – | 0.634 | –
S. aureus Newman [3], first compound 0.0075 µg/mL | 0.706 | – | 0.73 | – | 0.727 | –
S. aureus Newman [3], first compound 0.015 µg/mL | 0.583 | – | 0.565 | – | 0.554 | –
S. aureus Newman [3], first compound 0.03 µg/mL | 0.0423 | – | 0.0559 | – | 0.0929 | –
S. pneumoniae D39V [4], first compound 0.005 µg/mL | – | 0.979 | – | 0.994 | – | 0.969
S. pneumoniae D39V [4], first compound 0.01 µg/mL | – | 0.966 | – | 0.957 | – | 0.939
S. pneumoniae D39V [4], first compound 0.02 µg/mL | – | 0.947 | – | 0.927 | – | 0.893

fitness, one replicate
Details | partner 1.25 µg/mL | partner 1.5 µg/mL | partner 2.5 µg/mL | partner 3 µg/mL | partner 5 µg/mL | partner 6 µg/mL
S. aureus DSM 20231 [2], first compound 0.06 µg/mL | 0.684 | – | 0.7 | – | 0.699 | –
S. aureus DSM 20231 [2], first compound 0.12 µg/mL | 0.456 | – | 0.456 | – | 0.451 | –
S. pneumoniae D39V [4], first compound 0.0037 µg/mL | – | 0.906 | – | 0.857 | – | 0.896
S. pneumoniae D39V [4], first compound 0.0075 µg/mL | – | 0.878 | – | 0.852 | – | 0.868
S. pneumoniae D39V [4], first compound 0.015 µg/mL | – | 0.886 | – | 0.866 | – | 0.868

Details | Bliss interaction score
B. subtilis 168 [5] | 0.0133
S. aureus DSM 20231 [6] | -0.0639
S. aureus Newman [7] | -0.0625
S. pneumoniae D39V [8] | -0.0615

COc1c(N2C[C@@H]3CCCN[C@@H]3C2)c(F)cc2c(=O)c(C(=O)O)cn(C3CC3)c12 [Moxifloxacin] + Cc1cc(NS(=O)(=O)c2ccc(N)cc2)no1 [Sulfamethoxazol]
one replicate
Details | fitness
B. subtilis 168 [1], first compound 0.0312 µg/mL, partner 0.5 µg/mL | 0.0261
B. subtilis 168 [1], first compound 0.0625 µg/mL, partner 0.5 µg/mL | 0.034
B. subtilis 168 [1], first compound 0.125 µg/mL, partner 0.5 µg/mL | 0.0283
S. aureus DSM 20231 [2], first compound 0.06 µg/mL, partner 1 µg/mL | 0.669
S. aureus DSM 20231 [2], first compound 0.06 µg/mL, partner 2 µg/mL | 0.655
S. aureus DSM 20231 [2], first compound 0.06 µg/mL, partner 4 µg/mL | 0.655
S. aureus DSM 20231 [2], first compound 0.12 µg/mL, partner 1 µg/mL | 0.445
S. aureus DSM 20231 [2], first compound 0.12 µg/mL, partner 2 µg/mL | 0.44
S. aureus DSM 20231 [2], first compound 0.12 µg/mL, partner 4 µg/mL | 0.431
S. aureus Newman [3], first compound 0.0075 µg/mL, partner 8 µg/mL | 0.934
S. aureus Newman [3], first compound 0.015 µg/mL, partner 8 µg/mL | 0.887
S. aureus Newman [3], first compound 0.03 µg/mL, partner 8 µg/mL | 0.784
S. pneumoniae D39V [4], first compound 0.0037 µg/mL, partner 1 µg/mL | 0.897
S. pneumoniae D39V [4], first compound 0.0037 µg/mL, partner 2 µg/mL | 0.856
S. pneumoniae D39V [4], first compound 0.0037 µg/mL, partner 4 µg/mL | 0.797
S. pneumoniae D39V [4], first compound 0.0075 µg/mL, partner 1 µg/mL | 0.869
S. pneumoniae D39V [4], first compound 0.0075 µg/mL, partner 2 µg/mL | 0.857
S. pneumoniae D39V [4], first compound 0.0075 µg/mL, partner 4 µg/mL | 0.797
S. pneumoniae D39V [4], first compound 0.015 µg/mL, partner 1 µg/mL | 0.842
S. pneumoniae D39V [4], first compound 0.015 µg/mL, partner 2 µg/mL | 0.828
S. pneumoniae D39V [4], first compound 0.015 µg/mL, partner 4 µg/mL | 0.79

fitness
Details | partner 1 µg/mL | partner 2 µg/mL | partner 4 µg/mL
B. subtilis 168 [1], first compound 0.0312 µg/mL | 0.0226 | 0.0442 | 0.0303
B. subtilis 168 [1], first compound 0.0625 µg/mL | 0.0292 | 0.0328 | 0.0239
B. subtilis 168 [1], first compound 0.125 µg/mL | 0.0176 | 0.0212 | 0.0185
B. subtilis 168 [1], first compound 2 µg/mL | 0.0112 | 0.0253 | 0.0113
B. subtilis 168 [1], first compound 4 µg/mL | 0.0152 | 0.0241 | 0.0125
B. subtilis 168 [1], first compound 8 µg/mL | 0.0212 | 0.0227 | 0.0093
S. aureus DSM 20231 [2], first compound 0.0075 µg/mL | 0.78 | 0.829 | 0.765
S. aureus DSM 20231 [2], first compound 0.015 µg/mL | 0.69 | 0.724 | 0.76
S. aureus DSM 20231 [2], first compound 0.03 µg/mL | 0.586 | 0.682 | 0.692
S. aureus Newman [3], first compound 0.0075 µg/mL | 0.776 | 0.795 | 0.749
S. pneumoniae D39V [4], first compound 0.005 µg/mL | 0.944 | 0.969 | 0.958
S. pneumoniae D39V [4], first compound 0.01 µg/mL | 0.949 | 0.955 | 0.987
S. pneumoniae D39V [4], first compound 0.02 µg/mL | 0.894 | 0.912 | 0.926

Details | Bliss interaction score
B. subtilis 168 [5] | -0.0331
S. aureus DSM 20231 [6] | -0.0783
S. aureus Newman [7] | -0.071
S. pneumoniae D39V [8] | -0.0536

— the supplement of paper PMC10627819
